In US10253039B2, “Inhibitors of bacterial DNA gyrase with efficacy against gram-negative bacteria” (priority 2014, dated 2019):
Values after ≈ are worked out from the molar mass of the structure shown. Read-outs that look alike come from different tables or passages of the source.

Experiments:
Format in all cases: cell-based
Streptococcus pyogenes = test: MIC, 20-strain panel
Description: (§1) A microdilution method in 96-well plates was used and the MIC protocol established by the Clinical Laboratory Standards Institute was followed. From a growing subculture, a 1:10000 inoculum of each strain in Luria-Bertani media was prepared and aliquoted 100 μL in 4 columns of wells, except for the top row wells, which contained 200 μL of inoculum. A solution of gyramide C2 was aliquoted into 3 of the wells containing 200 μL and DMSO was added to the 4th well. The liquid in each of wells was mixed with a multi-channel pipet and 100 μL was transferred to the next well and mixed. The 2-fold dilution was continued down the 96-well plate until 100 μL was left, which was discarded. The plates were incubated at 37° C. with shaking for 16-18 hours. The MIC was determined as the lowest concentration that inhibited growth and had no turbidity by visual inspection.
(§2) Minimum inhibitory concentrations of various gyramide compounds against 20 strains of bacteria were determined using the procedure described above.

[1] = system: Klebsiella pneumoniae subsp. pneumoniae; test: MIC, 20-strain panel
Description: as §1, §2

[2] = system: Salmonella enterica subsp. enterica typhimurium; test: MIC, 20-strain panel
Description: as §1, §2

[3] = system: Staphylococcus epidermidis; test: MIC, 20-strain panel
Description: as §1, §2

Streptococcus agalactiae = test: MIC, 20-strain panel
Description: as §1, §2

[4] = system: Staphylococcus aureus subsp. aureus; test: MIC, 20-strain panel; conditions: read-out: MIC
Description: as §1, §2

[5] = system: Staphylococcus saprophyticus subsp. saprophyticus; test: MIC, 20-strain panel
Description: as §1, §2

Shigella flexneri = test: MIC, 20-strain panel
Description: as §1, §2

E. coli MG1655 = test: MIC, 20-strain panel; conditions: Escherichia coli, read-out: MIC
Description: as §1, §2

E. coli JW5503 (deltolC) = test: MIC, 20-strain panel; conditions: Escherichia coli
Description: as §1, §2

E. coli BW25113 = test: MIC, microdilution in 96-well plates; conditions: Escherichia coli, read-out: MIC
Description: as §1, §2

Edwardsiella tarda = test: MIC, microdilution in 96-well plates
Description: as §1, §2

[6] = Klebsiella pneumoniae subsp. pneumoniae
[7] = Salmonella enterica subsp. enterica Typhimurium
[8] = Staphylococcus aureus subsp. aureus
[9] = E: Klebsiella pneumoniae subsp. pneumoniae
[10] = F: Salmonella enterica subsp. enterica Typhimurium
[11] = H: Staphylococcus aureus subsp. aureus

SMILES | MIC (Streptococcus pyogenes) [µg/mL] | MIC [1, 6] [µg/mL] | MIC [2, 7] [µg/mL] | MIC [3] [µg/mL] | MIC (Streptococcus agalactiae) [µg/mL] | MIC [4, 8] [µg/mL] | MIC [5] [µg/mL] | MIC (Shigella flexneri) [µg/mL] | MIC (E. coli MG1655; MG1655, E. coli MG1655) [µg/mL] | MIC (E. coli JW5503 (deltolC); E. coli JW5503 (deltolC)) [µg/mL] | MIC (E. coli BW25113; BW25113, E. coli BW25113) [µg/mL] | MIC (Edwardsiella tarda) [µg/mL] | MIC [1, 9] [µg/mL] | MIC [2, 10] [µg/mL] | MIC [4, 11] [µg/mL] | MIC (Shigella flexneri; G: Shigella flexneri) [µg/mL] | MIC (E. coli MG1655; MG1655, A: E. coli MG1655) [µg/mL] | MIC (E. coli JW5503 (deltolC); C: E. coli JW5503 (deltolC)) [µg/mL] | MIC (E. coli BW25113; BW25113, B: E. coli BW25113) [µg/mL] | MIC (Edwardsiella tarda; D: Edwardsiella tarda) [µg/mL]
N#Cc1ccc(S(=O)(=O)N[C@@H]2CCN(Cc3ccc(-c4ccccc4)cc3)C2)cn1 [Compound 160] | > 8 | > 8 | > 8 | > 8 | > 8 | > 8 | > 8 | > 8 | > 8 | > 8 | > 8 | > 8 |  |  |  |  |  |  |  | 
N#Cc1cc(S(=O)(=O)N[C@@H]2CCN(Cc3ccc(-c4ccccc4)cc3)C2)ccc1Cl [Compound 120] | > 8 |  |  | > 8 | > 8 |  | > 8 |  |  |  |  |  | > 8 | > 8 | > 8 | > 8 | > 8 | ~8 (≈ 17.7 µM) | > 8 | > 8
CC(C)Oc1ccc(CN2CC[C@@H](NS(=O)(=O)c3cc(C#N)ccc3Cl)C2)cc1 [Compound 10] | > 8 |  |  | > 8 | > 8 |  | > 8 |  |  |  |  |  | > 8 | 8 (≈ 18.4 µM) | > 8 | > 8 | > 8 | 0.25 (≈ 0.576 µM) | > 8 | > 8
COc1cc(CN2CC[C@@H](NS(=O)(=O)c3cccc(OC(F)(F)F)c3)C2)ccc1OC(C)C [Compound 88] | > 8 |  |  | > 8 | > 8 |  | > 8 |  |  |  |  |  | > 8 | > 8 | > 8 | > 8 | > 8 | > 8 | > 8 | > 8
O=S(=O)(N[C@@H]1CCN(Cc2ccc(OC3CCCC3)cc2)C1)c1cccc(C(F)(F)F)c1 [Compound 41] | > 8 |  |  | 8 (≈ 17.1 µM) | > 8 |  | > 8 |  |  |  |  |  | > 8 | 8 (≈ 17.1 µM) | ~8 (≈ 17.1 µM) | > 8 | > 8 | 0.5 (≈ 1.07 µM) | > 8 | > 8
COc1ccccc1-c1ccc(CN2CC[C@@H](NS(=O)(=O)c3cccc(OC(F)(F)F)c3)C2)cc1 [Compound 76] | > 8 |  |  | > 8 | > 8 |  | > 8 |  |  |  |  |  | > 8 | > 8 | > 8 | > 8 | > 8 | 8 (≈ 15.8 µM) | > 8 | > 8
O=S(=O)(N[C@@H]1CCN(Cc2ccc(-c3ccccc3)cc2)C1)c1cnc2ccccc2c1 [Compound 178] | > 8 | > 8 | > 8 | > 8 | > 8 | > 8 | > 8 | > 8 | > 8 | > 8 | > 8 | > 8 |  |  |  |  |  |  |  | 
CC(C)Oc1ccc(CN2CC[C@@H](NS(=O)(=O)c3ncc[nH]3)C2)cc1 [Compound 136] | > 8 | > 8 | > 8 | > 8 | > 8 | > 8 | > 8 | > 8 | > 8 | ~8 (≈ 21.9 µM) | > 8 | > 8 |  |  |  |  |  |  |  | 
O=S(=O)(N[C@@H]1CCN(Cc2ccc(-c3cccc(Cl)c3)cc2)C1)c1cccc(C(F)(F)F)c1 [Compound 50] | ~8 (≈ 16.2 µM) |  |  | 2 (≈ 4.04 µM) | > 8 |  | > 8 |  |  |  |  |  | > 8 | > 8 | 8 (≈ 16.2 µM) | > 8 | > 8 | 8 (≈ 16.2 µM) | > 8 | > 8
Cc1c(S(=O)(=O)N[C@@H]2CCN(Cc3ccc(OC(C)C)cc3)C2)sc2ccc(Cl)cc12 [Compound 83] | 8 (≈ 16.7 µM) |  |  | 8 (≈ 16.7 µM) | > 8 |  | > 8 |  |  |  |  |  | > 8 | > 8 | ~8 (≈ 16.7 µM) | > 8 | > 8 | 8 (≈ 16.7 µM) | > 8 | > 8
N#Cc1cccc(S(=O)(=O)N[C@@H]2CCN(Cc3ccc(-c4nccs4)cc3)C2)c1 [Compound 12] | > 8 |  |  | > 8 | > 8 |  | > 8 |  |  |  |  |  | > 8 | > 8 | > 8 | > 8 | > 8 | 2 (≈ 4.71 µM) | > 8 | > 8
CC(C)Oc1ccc(CN2CC[C@@H](NS(=O)(=O)c3ccc(F)c(C#N)c3)C2)cc1 [Compound 165] | > 8 | > 8 | > 8 | > 8 | > 8 | > 8 | > 8 | > 8 | > 8 | 4 (≈ 9.58 µM) | > 8 | > 8 |  |  |  |  |  |  |  | 
Cn1ccc(-c2ccc(CN3CC[C@@H](NS(=O)(=O)c4cccc(C#N)c4)C3)cc2)n1 [Compound 170] | > 8 | > 8 | > 8 | > 8 | > 8 | > 8 | > 8 | > 8 | > 8 | 2 (≈ 4.74 µM) | > 8 | > 8 |  |  |  |  |  |  |  | 
N#Cc1cccc(S(=O)(=O)N[C@@H]2CCN(Cc3ccc(OC(F)F)cc3)C2)c1 [Compound 2] | > 8 |  |  | > 8 | > 8 |  | > 8 |  |  |  |  |  | > 8 | > 8 | > 8 | > 8 | > 8 | 8 (≈ 19.6 µM) | > 8 | > 8
O=S(=O)(N[C@@H]1CCN(Cc2ccc(-c3ccccc3)cc2)C1)c1cnc2ccsc2c1 [Compound 111] | > 8 |  |  | > 8 | > 8 |  | > 8 |  |  |  |  |  | > 8 | > 8 | > 8 | > 8 | > 8 | > 8 | > 8 | > 8
COc1ccc(-c2ccc(CN3CC[C@@H](NS(=O)(=O)c4cccc(C#N)c4)C3)cc2)cc1 [Compound 80] | > 8 |  |  | > 8 | > 8 |  | > 8 |  |  |  |  |  | > 8 | > 8 | > 8 | > 8 | > 8 | > 8 | > 8 | > 8
N#Cc1cccc(S(=O)(=O)N[C@@H]2CCN(Cc3ccc(-c4cncnc4)cc3)C2)c1 [Compound 22] | > 8 |  |  | > 8 | > 8 |  | > 8 |  |  |  |  |  | > 8 | > 8 | > 8 | > 8 | > 8 | 8 (≈ 19.1 µM) | > 8 | > 8
CC(C)Oc1ccc(CN2CC[C@@H](NS(=O)(=O)c3cncc(F)c3)C2)cc1 [Compound 150] | > 8 | > 8 | > 8 | > 8 | > 8 | > 8 | > 8 | > 8 | > 8 | > 8 | > 8 | > 8 |  |  |  |  |  |  |  | 
Cc1c(CN2CC[C@@H](NS(=O)(=O)c3cccc(C(F)(F)F)c3)C2)cnn1-c1ccccc1 [Compound 56] | > 8 |  |  | > 8 | > 8 |  | > 8 |  |  |  |  |  | > 8 | > 8 | > 8 | > 8 | > 8 | > 8 | > 8 | > 8
N#Cc1cccc(S(=O)(=O)N[C@@H]2CCN(Cc3ccc(SC(F)(F)F)cc3)C2)c1 [Compound 20] | > 8 |  |  | > 8 | > 8 |  | > 8 |  |  |  |  |  | > 8 | > 8 | > 8 | > 8 | > 8 | 8 (≈ 18.1 µM) | > 8 | > 8
O=S(=O)(N[C@@H]1CCN(Cc2ccc(OC3CCOCC3)cc2)C1)c1cccc(C(F)(F)F)c1 [Compound 38] | > 8 |  |  | > 8 | > 8 |  | > 8 |  |  |  |  |  | > 8 | > 8 | > 8 | > 8 | > 8 | 1 (≈ 2.06 µM) | > 8 | > 8
